The values that follow come from patent US20120283212A1, “USE OF POLYSACCHARIDES FOR TREATING STRESS AND ANXIETY” (ROQUETTE FRERES, priority 2009, published 2012).

In assay [1] the test system is male Wistar rat. Nature of the assay: Conditioned Defensive Burying (CDB) test. The format is in vivo. Conditions: the greater the stress, the higher the score. The method, then:
The anti-stress effects of a PS1 polysaccharide, administered orally for 14 days, were evaluated in the male Wistar rat in the Conditioned Defensive Burying (CDB) test.
For this, the PS1 is administered by esophageal gavage daily at the doses of 0.7, 1.4 and 2.8 g/kg of body weight for 14 days (8 rats per group). Similarly, a vehicle control represented by spring water is administered under the same conditions. The reference positive control is diazepam: from D0 to D13, methylcellulose is administered to the rats, and on D14, diazepam at 1 mg/kg or 3 mg/kg of body weight is administered to the rats. The PS1 and diazepam mixture is also studied: the PS1 is administered for 14 days alone, and on D14, diazepam at 1 mg/kg is added to the esophageal gavage of the PS1.
On D14, the rats are subjected to the Conditioned Defensive Burying (CDB) test. For this, an electric probe is inserted into a cage before the start of the test. Each rat is placed in the experimental device on the opposite side to the probe and a single electric shock, of weak intensity (2 mA), is delivered to the animal at the moment it places its front paw on the probe for the first time. Following the shock, the behavior of the rat is recorded for five minutes; an overall stress score is attributed for each rat. The greater the stress, the higher the score.

Assay [2] deals with male Wistar rat. Nature of the assay: Functional observational battery (FOB). The format is in vivo. Conditions: diazepam 3 mg/kg on D14; for Spontaneous activity on D14 (score): score 0=excited, 1 to 3 moderate rapid movements, 4 no activity; for Finger approach reaction on D14 (score): score 0=none, 1 to 3=slight to strong escape; for Respiratory rate on D14 (score): score 0=slow, 1=normal, 2 rapid. The method, then: The effects of an oligosaccharide administered orally at doses of 0.7 and 1.4 g/kg for 14 days were evaluated in a functional observational battery (FOB) in the male Wistar rat. The objective of this FOB test is to evaluate the change in behavioral, neurological and physiological parameters of the rats according to the products tested.
For this, a polysaccharide (PS1) as defined in table 1 is administered by esophageal gavage daily at these two doses for 14 days (6 rats per group). Similarly, a vehicle control consisting of spring water is administered under these conditions. The reference positive control is diazepam: from D0 to D13, methylcellulose is administered to the rats and on D14, diazepam at 3 mg/kg of body weight is also administered.
The animals are subjected to the functional observational battery before treatment on D0 and at the end of the study on D14.
Each test comprises three observational phases: • a direct observational phase during which the animal is not disturbed, • an active observational phase during which the animal is handled, • a phase devoted to evaluating the reactions of the animals to reactivity tests.
Several variables are recorded: • Behavioral effects: spontaneous locomotor activity, locomotor behavior disorders, emotionality (vocalization frequency), touch escape reaction, irritability, provoked aggressiveness and freezing behaviors, sleeping/awakening, urination and defecation, sensorimotor responses (visual placing, toe pinch and sound stimulus reaction). • Neurological effects: pupillary response, palpebral reflex, pelvic elevation, tail position, limb and abdominal muscle tone, righting test, grip strength test, suspension test, tremors and piloerection. • Physiological effects: salivation, lacrimation, diarrhea, rectal temperature, heart and respiratory rate.
Definition of the scores: • Spontaneous activity: 0=excited; 1 to 3 moderate rapid movements; 4: no activity. • Finger approach reaction: 0=none; 1 to 3=slight to strong escape. • Respiratory rate: 0=slow; 1=normal; 2 rapid. • Sound stimulus startle reaction: 0=slight; 1=<1 cm; 2=>1 cm.

Molecules are shown by their SMILES.

Consider `CN1C(=O)CN=C(c2ccccc2)c2cc(Cl)ccc21` [Diazepam, diazepam], for which the “Overall stress score (Mean ± SEM)” value in assay [1] (diazepam 1 mg/kg on D14) is 92.57 ± 17.99. The “Overall stress score (Mean ± SEM)” value in assay [1] (diazepam 3 mg/kg on D14) was 65.25 ± 7.15. Also, the “Overall stress score (Mean ± SEM)” value in assay [1] (diazepam 3 mg/kg on D14, listed as diazepam) is “significantly lower than that of the vehicle group”. In addition, in assay [2], the “Heart rate on D14, in comparison with the vehicle” value was “significantly slower”; the “Spontaneous activity on D14 (score)” value amounted to 2.16; the “Finger approach reaction on D14 (score)” value is recorded as 0.18; the “Respiratory rate on D14 (score)” value is recorded as 1.14. Further, in assay [2] (listed as reference), the “Spontaneous activity on D14 (score)” value is on record as “tend to be significantly less active”, the “Finger approach reaction on D14 (score)” value is on record as “significantly less reactive to a finger approach” and the “Respiratory rate on D14 (score)” value is given as “significantly slower”. In assay [2] (score 0=slight, 1=<1 cm, 2=>1 cm), the “Sound stimulus startle reaction on D14 (score)” value was found to be 0.00.
